# Results published in patent US10961233B2 (LIFEARC, priority 2016, dated 2021).
# pEC50, pIC50: −log10 of the molar value.
# What was measured:
# WT full length PAICS = WT full length PAICS (Homo sapiens (Human), UniProt P22234); experiment: Biochemical assay to measure PAICS activity (Transcreener ADP2 FI); conditions: SAICAR synthetase reaction, ADP detection, 30 min pre-incubation
# [1] = test system: LM2 and MDA-MB-231 breast cancer cell lines; experiment: PAICS 2D cell proliferation assay (CellTiter-Glo viability, 72 h); format: cell-based; conditions: Homo sapiens; 72 h incubation; cell line not given
# [2] = test system: wild type LM2 and CRISPR edited LM2; experiment: 2D cell proliferation assay, wild type LM2 versus PAICS CRISPR edited LM2; format: cell-based, human; conditions: LM2 cells, PAICS CRISPR edited vs wild type
# Protocol: Cas9 nuclease-mediated gene editing (Sander and Joung, 2014) was performed using a CRISPR RNA guide sequence ([…], PAM: AGG) targeting exon 3 in the human PAICS gene (accession number: NM_006452).
# Stable cell clones were isolated and gene disruption confirmed by DNA sequencing and the absence of PAICS cellular protein expression confirmed by Western blotting.
# A small set of compounds were tested against wild type LM2 and CRISPR edited LM2 in the 2D cell proliferation assay to establish to what extent the cellular potency was driven by PAICS mediated effects. The data is shown in Table 2: compounds tested had no effect on CRISPR edited cells, confirming the on-targets effect as being PAICS mediated.
# MDA-MB-231 Dlux cells = experiment: MDA-MB-231-Dlux xenograft model; format: in vivo; conditions: oral 25 mg/kg twice daily, 2 weeks, mammary fat pad implant, MF-1 nude mice
# Protocol: Evaluation of Compound 69 in MDA-MB-231-Dlux Xenograft Model
# Mice were implanted with MDA-MB-231 Dlux cells in the mammary fat pad. Mice were treated with test agent, (Compound 69), standard of care control agent, docetaxel, or vehicle control, once tumours reached a mean volume of ˜100-200 mm^3. Tumours were measured every 2-3 days using electronic calipers and tumour volume estimated using the formula 0.5 (L×W^2). Treatment continued for 2 weeks. Mice were observed and body weight measured daily
# MF-1 (HsdOla:MF1-Foxn1^nu)
# MDA-MB-231 Dlux (Bioluminescent MDA-MD-231 variant)
# Implantation Site: Mammary fat pad (1:1 matrgel/PBS)
# Compound 69 (Oral 25 mg/kg twice daily)
# Docetaxel (IV 5 mg/kg twice weekly)
# WT full length PAICS, sequence (P22234 whole entry): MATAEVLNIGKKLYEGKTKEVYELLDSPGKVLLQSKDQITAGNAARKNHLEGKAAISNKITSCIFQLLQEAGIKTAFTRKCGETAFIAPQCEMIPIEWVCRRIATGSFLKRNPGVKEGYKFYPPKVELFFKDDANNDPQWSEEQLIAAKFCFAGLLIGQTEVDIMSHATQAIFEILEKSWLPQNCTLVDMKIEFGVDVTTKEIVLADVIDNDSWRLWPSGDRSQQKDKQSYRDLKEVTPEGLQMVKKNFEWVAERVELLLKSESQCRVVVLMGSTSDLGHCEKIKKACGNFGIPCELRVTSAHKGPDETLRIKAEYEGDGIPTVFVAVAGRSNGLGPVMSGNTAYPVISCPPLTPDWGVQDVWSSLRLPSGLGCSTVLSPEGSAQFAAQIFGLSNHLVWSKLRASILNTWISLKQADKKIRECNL
compound,measurement,setting,value
"CN(C)CCCS(=O)(=O)N1CCN(c2ccc(Br)c(NC(=O)c3coc(N)n3)c2)CC1 [Example 69, 2-Amino-N-(2-bromo-5-(4-(3-(dimethylamino)propylsulfonyl)piperazin-1-yl)phenyl)oxazole-4-carboxamide]",pIC50,WT full length PAICS,> 8.00
same,pEC50,[1],> 7.00
same,Potency shift: CRISPR Cell EC50/WT Cell EC50,[2],>500
same,growth of primary tumour,MDA-MB-231 Dlux cells,statistically significant reduction in growth of primary tumour
